From the supplement of paper PMC10307832

Legend:
Assay in all cases: relative viability (nuclei count vs DMSO), 5 days (fraction); higher = more cells survive
CAL-12T = system: CAL-12T
Method in brief: (§1)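 Cells from lung cancer lines were seeded into 1536-well plates and, one day later, dosed by pin tool. Treatments were either a single drug or a fixed dose of an anchor drug with five library-drug doses (not always all listed) in √10 steps. After 5 days, nuclei were stained in a one-step fixation (final 0.05% Triton X-100, 1% formaldehyde, 1 ug/ml Hoechst) and counted on 4× images, and relative viability is the treated-to-vehicle nuclei ratio, as the median of duplicate plates.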

NCI-H1975 = system: NCI-H1975
Method in brief: as §1

NCI-H358 = system: NCI-H358
Method in brief: as §1

NCI-H1437 = system: NCI-H1437
Method in brief: as §1

NCI-H2023 = system: NCI-H2023
Method in brief: as §1

NCI-H838 = system: NCI-H838
Method in brief: as §1

NCI-H1793 = system: NCI-H1793
Method in brief: as §1

NCI-H1563 = system: NCI-H1563
Method in brief: as §1

LOU-NH91 = system: LOU-NH91
Method in brief: as §1

NCI-H2342 = system: NCI-H2342
Method in brief: as §1

NCI-H2085 = system: NCI-H2085
Method in brief: as §1

Work on `O=c1cc(-c2cccc3c2Sc2ccccc2S3)oc(N2CCOCC2)c1` + Nc1nc2[nH]cc(CCc3ccc(C(=O)N[C@@H](CCC(=O)O)C(=O)O)cc3)c2c(=O)[nH]1 [Pemetrexed] (partner 0.2 µM) yielded a relative viability (CAL-12T; first compound 0.08 µM) of 1.25, a relative viability (CAL-12T; first compound 0.253 µM) of 1.39 and a relative viability (CAL-12T; first compound 0.8 µM) of 1.18. For the same compound, the relative viability (CAL-12T; first compound 2.53 µM) was 1.04, the relative viability (CAL-12T; first compound 8 µM) was 1.03 and the relative viability (NCI-H1975; first compound 0.08 µM) was 0.318. For the same compound, the relative viability (NCI-H1975; first compound 0.253 µM) was 0.29, the relative viability (NCI-H1975; first compound 0.8 µM) was 0.313 and the relative viability (NCI-H1975; first compound 2.53 µM) was 0.287. It also gave a relative viability (NCI-H1975; first compound 8 µM) of 0.288, a relative viability (NCI-H358; first compound 0.08 µM) of 0.161 and a relative viability (NCI-H358; first compound 0.253 µM) of 0.188. It also gave a relative viability (NCI-H358; first compound 0.8 µM) of 0.183, a relative viability (NCI-H358; first compound 2.53 µM) of 0.176 and a relative viability (NCI-H358; first compound 8 µM) of 0.175. For the same compound, the relative viability (NCI-H1437; first compound 0.08 µM) was 0.339, the relative viability (NCI-H1437; first compound 0.253 µM) was 0.354 and the relative viability (NCI-H1437; first compound 0.8 µM) was 0.435. For the same compound, the relative viability (NCI-H1437; first compound 2.53 µM) was 0.288, the relative viability (NCI-H1437; first compound 8 µM) was 0.3 and the relative viability (NCI-H2023; first compound 0.08 µM) was 0.222. It also gave a relative viability (NCI-H2023; first compound 0.253 µM) of 0.3, a relative viability (NCI-H2023; first compound 0.8 µM) of 0.198 and a relative viability (NCI-H2023; first compound 2.53 µM) of 0.213. It also gave a relative viability (NCI-H2023; first compound 8 µM) of 0.221, a relative viability (NCI-H838; first compound 0.08 µM) of 0.266 and a relative viability (NCI-H838; first compound 0.253 µM) of 0.245. For the same compound, the relative viability (NCI-H838; first compound 0.8 µM) was 0.249, the relative viability (NCI-H838; first compound 2.53 µM) was 0.226 and the relative viability (NCI-H838; first compound 8 µM) was 0.226. For the same compound, the relative viability (NCI-H1793; first compound 0.08 µM) was 0.728, the relative viability (NCI-H1793; first compound 0.253 µM) was 1.04 and the relative viability (NCI-H1793; first compound 0.8 µM) was 0.798. For the same compound, the relative viability (NCI-H1793; first compound 2.53 µM) was 0.679, the relative viability (NCI-H1793; first compound 8 µM) was 1.2 and the relative viability (NCI-H1563; first compound 0.08 µM) was 0.695. It also gave a relative viability (NCI-H1563; first compound 0.253 µM) of 0.741, a relative viability (NCI-H1563; first compound 0.8 µM) of 0.744 and a relative viability (NCI-H1563; first compound 2.53 µM) of 0.684. For the same compound, the relative viability (NCI-H1563; first compound 8 µM) was 0.787, the relative viability (LOU-NH91; first compound 0.08 µM) was 0.332 and the relative viability (LOU-NH91; first compound 0.253 µM) was 0.34. For the same compound, the relative viability (LOU-NH91; first compound 0.8 µM) was 0.367, the relative viability (LOU-NH91; first compound 2.53 µM) was 0.397 and the relative viability (LOU-NH91; first compound 8 µM) was 0.31. It also gave a relative viability (NCI-H2342; first compound 0.08 µM) of 0.703, a relative viability (NCI-H2342; first compound 0.253 µM) of 0.817 and a relative viability (NCI-H2342; first compound 0.8 µM) of 0.718. It also gave a relative viability (NCI-H2342; first compound 2.53 µM) of 0.725, a relative viability (NCI-H2342; first compound 8 µM) of 0.848 and a relative viability (NCI-H2085; first compound 0.08 µM) of 0.828. The relative viability (NCI-H2085; first compound 0.253 µM) was 0.962, the relative viability (NCI-H2085; first compound 0.8 µM) was 0.934 and the relative viability (NCI-H2085; first compound 2.53 µM) was 0.757. For the same compound, the relative viability (NCI-H2085; first compound 8 µM) was 0.773.
